Reference: patent publication US6706276B2, “Compositions and methods for trapping and inactivating pathogenic microbes and spermatozoa” (Rush-Presbyterian-St. Luke's Medical Center, priority 2000, dated 2004)
Marks after values point to notes of the source that are not given here.

Key:
HSV-2 strain 186 = assay: Genital herpes infection in the mouse model; assay type: in vivo, mice; conditions: Table IV, 20 sec before virus inoculation; for Protected Against Disease, Number / Protected Against Infection, Number: 15 inoculated
[1] = test system: vaginal/cervical epithelial and other cells; conditions: in vitro; cited from earlier work

## nonoxynol-9 [N-9]
HSV-2 strain 186; N-9 5% in PBS
  Protected Against Disease, %: 40^d %
  Protected Against Infection, %: 13%
  Protected Against Disease, Number: 6
  Protected Against Infection, Number: 2
HSV-2 strain 186; N-9 50% in PBS
  Protected Against Disease, %: 100^c %
  Protected Against Infection, %: 93^c %
  Protected Against Disease, Number: 15
HSV-2 strain 186; N-9 100% in PBS
  Protected Against Disease, %: 100^c %
  Protected Against Infection, %: 93^c %
  Protected Against Disease, Number: 15
  Protected Against Infection, Number: 14
HSV-2 strain 186; N-9 in PBS
  Protected Against Infection, Number: 14
[1]
  lowest concentration injuring cells: about 0.0005%
